Measured values: PubChem BioAssay AID2060904 (Molecular Pharmacology Branch, DTP, NCI, 2025)
pIC50: −log10 of the molar value.

Tested on: 349418-098-R-PDC complex spheroid viability
Assay: Anticancer human tumor 349418-098-R-PDC patient-derived lung adenocarcinoma cell line growth inhibition [RAS]
Conditions: for pIC50: curve of first compound; for viability, T/C: stronger effect = lower value
Procedure, shortened: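 Agents were tested in combination matrices in half-log decrements from a top concentration at or near clinical Cmax (10 microM if undetermined). Targets were multi-cell spheroids of tumour lines plus HUVEC and MSC stromal cells.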

[1] = second compound 0.000949 µM, first compound 0.0316 µM
[2] = second compound 0.000949 µM, first compound 0.1 µM
[3] = second compound 0.000949 µM, first compound 0.316 µM
[4] = second compound 0.000949 µM, first compound 1 µM
[5] = second compound 0.000949 µM, first compound 3.16 µM
[6] = second compound 0.000949 µM, first compound 10 µM
[7] = second compound 0.003 µM, first compound 0.0316 µM
[8] = second compound 0.003 µM, first compound 0.1 µM
[9] = second compound 0.003 µM, first compound 0.316 µM
[10] = second compound 0.003 µM, first compound 1 µM
[11] = second compound 0.003 µM, first compound 3.16 µM
[12] = second compound 0.003 µM, first compound 10 µM
[13] = second compound 0.00949 µM, first compound 0.0316 µM
[14] = second compound 0.00949 µM, first compound 0.1 µM
[15] = second compound 0.00949 µM, first compound 0.316 µM
[16] = second compound 0.00949 µM, first compound 1 µM
[17] = second compound 0.00949 µM, first compound 3.16 µM
[18] = second compound 0.00949 µM, first compound 10 µM
[19] = second compound 0.03 µM, first compound 0.0316 µM
[20] = second compound 0.03 µM, first compound 0.1 µM
[21] = second compound 0.03 µM, first compound 0.316 µM
[22] = second compound 0.03 µM, first compound 1 µM
[23] = second compound 0.03 µM, first compound 3.16 µM
[24] = second compound 0.03 µM, first compound 10 µM
[25] = second compound 0.0949 µM, first compound 0.0316 µM
[26] = second compound 0.0949 µM, first compound 0.1 µM
[27] = second compound 0.0949 µM, first compound 0.316 µM
[28] = second compound 0.0949 µM, first compound 1 µM
[29] = second compound 0.0949 µM, first compound 3.16 µM
[30] = second compound 0.0949 µM, first compound 10 µM
[31] = second compound 0.3 µM, first compound 0.0316 µM
[32] = second compound 0.3 µM, first compound 0.1 µM
[33] = second compound 0.3 µM, first compound 0.316 µM
[34] = second compound 0.3 µM, first compound 1 µM
[35] = second compound 0.3 µM, first compound 3.16 µM
[36] = second compound 0.3 µM, first compound 10 µM
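Note: spheroids exposed to compound for seven days before viability readout.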

`CC(C)NCC(C(=O)N1CCN(c2ncnc3c2C(C)CC3O)CC1)c1ccc(Cl)cc1` (stereo not drawn) + CCn1c(-c2cc(N3CCN(C)CC3)cnc2C(C)OC)c2c3cc(ccc31)-c1csc(n1)CC(NC(=O)C1CC1C)C(=O)N1CCCC(N1)C(=O)OCC(C)(C)C2 was tested, and the pIC50 (second compound 0.000949 µM) was 6.07, the pIC50 (second compound 0.003 µM) was 6.08 and the pIC50 (second compound 0.00949 µM) was 5.94. It also gave a pIC50 (second compound 0.03 µM) of 6.06, a pIC50 (second compound 0.0949 µM) of 5.92 and a pIC50 (second compound 0.3 µM) of 6.08. It also gave a viability, T/C [1] of 97%, a viability, T/C [2] of 86.3% and a viability, T/C [3] of 71.5%. It also gave a viability, T/C [4] of 47.3%, a viability, T/C [5] of 23.5% and a viability, T/C [6] of 14.2%. The viability, T/C [7] was 117%, the viability, T/C [8] was 101% and the viability, T/C [9] was 70.2%. For the same molecule, the viability, T/C [10] was 45.8%, the viability, T/C [11] was 28.4% and the viability, T/C [12] was 15.1%. For the same molecule, the viability, T/C [13] was 110%, the viability, T/C [14] was 97.6% and the viability, T/C [15] was 78.9%. For the same molecule, the viability, T/C [16] was 53%, the viability, T/C [17] was 29.3% and the viability, T/C [18] was 14.8%. For the same molecule, the viability, T/C [19] was 113%, the viability, T/C [20] was 90.1% and the viability, T/C [21] was 61.3%. It also gave a viability, T/C [22] of 45.9%, a viability, T/C [23] of 34.6% and a viability, T/C [24] of 11.4%. The viability, T/C [25] was 108%, the viability, T/C [26] was 118% and the viability, T/C [27] was 90.3%. For the same molecule, the viability, T/C [28] was 54.5%, the viability, T/C [29] was 25.4% and the viability, T/C [30] was 10.8%. It also gave a viability, T/C [31] of 113%, a viability, T/C [32] of 104% and a viability, T/C [33] of 76.4%. The viability, T/C [34] was 38.6%, the viability, T/C [35] was 36% and the viability, T/C [36] was 11.6%.

`CC(C)n1nc(-c2ccc3oc(N)nc3c2)c2c(N)ncnc21` + CCn1c(-c2cc(N3CCN(C)CC3)cnc2C(C)OC)c2c3cc(ccc31)-c1csc(n1)CC(NC(=O)C1CC1C)C(=O)N1CCCC(N1)C(=O)OCC(C)(C)C2 showed a pIC50 (second compound 0.000949 µM) of 8.64, a pIC50 (second compound 0.003 µM) of 8.51 and a pIC50 (second compound 0.00949 µM) of 8.55. For the same molecule, the pIC50 (second compound 0.03 µM) was 8.45, the pIC50 (second compound 0.0949 µM) was 8.70 and the pIC50 (second compound 0.3 µM) was 8.46. The viability, T/C (second compound 0.000949 µM, first compound 0.000316 µM) was 97.9%, the viability, T/C (second compound 0.000949 µM, first compound 0.001 µM) was 75.8% and the viability, T/C (second compound 0.000949 µM, first compound 0.00316 µM) was 37.8%. The viability, T/C (second compound 0.000949 µM, first compound 0.01 µM) was 22.4%, the viability, T/C [1] was 8.76% and the viability, T/C [2] was 7.18%. For the same molecule, the viability, T/C (second compound 0.003 µM, first compound 0.000316 µM) was 87%, the viability, T/C (second compound 0.003 µM, first compound 0.001 µM) was 66.9% and the viability, T/C (second compound 0.003 µM, first compound 0.00316 µM) was 54.9%. The viability, T/C (second compound 0.003 µM, first compound 0.01 µM) was 18.6%, the viability, T/C [7] was 7.75% and the viability, T/C [8] was 6.04%. It also gave a viability, T/C (second compound 0.00949 µM, first compound 0.000316 µM) of 106%, a viability, T/C (second compound 0.00949 µM, first compound 0.001 µM) of 84.4% and a viability, T/C (second compound 0.00949 µM, first compound 0.00316 µM) of 46.3%. For the same molecule, the viability, T/C (second compound 0.00949 µM, first compound 0.01 µM) was 16.6%, the viability, T/C [13] was 7.24% and the viability, T/C [14] was 5.27%. The viability, T/C (second compound 0.03 µM, first compound 0.000316 µM) was 100%, the viability, T/C (second compound 0.03 µM, first compound 0.001 µM) was 98.3% and the viability, T/C (second compound 0.03 µM, first compound 0.00316 µM) was 54.4%. It also gave a viability, T/C (second compound 0.03 µM, first compound 0.01 µM) of 11.8%, a viability, T/C [19] of 8.66% and a viability, T/C [20] of 6.68%. The viability, T/C (second compound 0.0949 µM, first compound 0.000316 µM) was 111%, the viability, T/C (second compound 0.0949 µM, first compound 0.001 µM) was 67.4% and the viability, T/C (second compound 0.0949 µM, first compound 0.00316 µM) was 39.3%. The viability, T/C (second compound 0.0949 µM, first compound 0.01 µM) was 18.7%, the viability, T/C [25] was 7.91% and the viability, T/C [26] was 5.64%. For the same molecule, the viability, T/C (second compound 0.3 µM, first compound 0.000316 µM) was 94.7%, the viability, T/C (second compound 0.3 µM, first compound 0.001 µM) was 87.2% and the viability, T/C (second compound 0.3 µM, first compound 0.00316 µM) was 53.6%. For the same molecule, the viability, T/C (second compound 0.3 µM, first compound 0.01 µM) was 14.6%, the viability, T/C [31] was 8.69% and the viability, T/C [32] was 6.51%.

`CC(Nc1ccc2c(c1)OCCn1cc(N3C(=O)OCC3C(F)F)nc1-2)C(N)=O` (stereo not drawn) + CCn1c(-c2cc(N3CCN(C)CC3)cnc2C(C)OC)c2c3cc(ccc31)-c1csc(n1)CC(NC(=O)C1CC1C)C(=O)N1CCCC(N1)C(=O)OCC(C)(C)C2 showed a pIC50 (second compound 0.000949 µM) of 6.90, a pIC50 (second compound 0.003 µM) of 7.03 and a pIC50 (second compound 0.00949 µM) of 6.80. It also gave a pIC50 (second compound 0.03 µM) of 7.04, a pIC50 (second compound 0.0949 µM) of 6.84 and a pIC50 (second compound 0.3 µM) of 6.77. It also gave a viability, T/C [1] of 75.9%, a viability, T/C [2] of 56.3% and a viability, T/C [3] of 25.9%. It also gave a viability, T/C [4] of 19.5%, a viability, T/C [5] of 25.7% and a viability, T/C [6] of 14.8%. The viability, T/C [7] was 78.6%, the viability, T/C [8] was 49.9% and the viability, T/C [9] was 25.1%. For the same molecule, the viability, T/C [10] was 25.5%, the viability, T/C [11] was 15.4% and the viability, T/C [12] was 13.2%. For the same molecule, the viability, T/C [13] was 85.8%, the viability, T/C [14] was 57.5% and the viability, T/C [15] was 39.6%. The viability, T/C [16] was 21.4%, the viability, T/C [17] was 20.3% and the viability, T/C [18] was 14%. For the same molecule, the viability, T/C [19] was 76.4%, the viability, T/C [20] was 44.7% and the viability, T/C [21] was 36.8%. The viability, T/C [22] was 21.9%, the viability, T/C [23] was 16.7% and the viability, T/C [24] was 17.3%. It also gave a viability, T/C [25] of 77.8%, a viability, T/C [26] of 59.2% and a viability, T/C [27] of 30.7%. It also gave a viability, T/C [28] of 21.5%, a viability, T/C [29] of 25.5% and a viability, T/C [30] of 15.9%. It also gave a viability, T/C [31] of 89.2%, a viability, T/C [32] of 57.2% and a viability, T/C [33] of 42%. The viability, T/C [34] was 26.8%, the viability, T/C [35] was 26.6% and the viability, T/C [36] was 18.8%.

In the case of `C[C@@H](NC(=O)c1ncnc(N)c1Cl)c1ncc(C(=O)Nc2cc(C(F)(F)F)c(Cl)cn2)s1` + CCn1c(-c2cc(N3CCN(C)CC3)cnc2C(C)OC)c2c3cc(ccc31)-c1csc(n1)CC(NC(=O)C1CC1C)C(=O)N1CCCC(N1)C(=O)OCC(C)(C)C2, the pIC50 (second compound 0.000949 µM) was 5.87, the pIC50 (second compound 0.003 µM) was 5.95 and the pIC50 (second compound 0.00949 µM) was 6.01. It also gave a pIC50 (second compound 0.03 µM) of 6.09, a pIC50 (second compound 0.0949 µM) of 6.16 and a pIC50 (second compound 0.3 µM) of 6.04. The viability, T/C [1] was 105%, the viability, T/C [2] was 85.8% and the viability, T/C [3] was 77.9%. The viability, T/C [4] was 58.2%, the viability, T/C [5] was 30.6% and the viability, T/C [6] was 17.3%. It also gave a viability, T/C [7] of 102%, a viability, T/C [8] of 93.6% and a viability, T/C [9] of 72.5%. It also gave a viability, T/C [10] of 54.5%, a viability, T/C [11] of 29.7% and a viability, T/C [12] of 18.7%. It also gave a viability, T/C [13] of 106%, a viability, T/C [14] of 90.4% and a viability, T/C [15] of 81.1%. The viability, T/C [16] was 49%, the viability, T/C [17] was 23.2% and the viability, T/C [18] was 12.5%. The viability, T/C [19] was 103%, the viability, T/C [20] was 88% and the viability, T/C [21] was 87.4%. For the same molecule, the viability, T/C [22] was 40%, the viability, T/C [23] was 23.1% and the viability, T/C [24] was 11.4%. The viability, T/C [25] was 102%, the viability, T/C [26] was 89.6% and the viability, T/C [27] was 79.3%. The viability, T/C [28] was 35%, the viability, T/C [29] was 20.2% and the viability, T/C [30] was 11.8%. It also gave a viability, T/C [31] of 104%, a viability, T/C [32] of 93.2% and a viability, T/C [33] of 69.9%. It also gave a viability, T/C [34] of 51.8%, a viability, T/C [35] of 23.2% and a viability, T/C [36] of 12.5%.
